According to paper PMC11882969 (Nature Communications, 2025):
Values joined by “and” are separate entries in the source; they are usually repeats but may differ in a detail not shown here. Equal values may be shown once. Read-outs that look alike come from different tables or passages of the source.

How the values were obtained:
[1] = biological target: T1, CB1 (rCB1) (Rattus norvegicus, UniProt P20272); assay: Radioligand competition binding, [3H]-CP-55,940, rat brain membranes
[2] = biological target: AmpC β-lactamase (Escherichia coli, UniProt P00811); type: biochemical; conditions: Rep 1-3 mean; sheet FigureS2c
Method: Enzyme inhibition assays to test for colloidal inhibition were performed at room temperature using CLARIOstar Plate Reader (BMG Labtech). Samples were prepared in 50 mM KPi buffer, pH 7.0 with final DMSO concentration at 1% (v/v). Compounds were incubated with 2 nM AmpC β-lactamase (AmpC) or Malate dehydrogenase (MDH) for 5 min. AmpC reactions were initiated by the addition of 50 μM CENTA chromogenic substrate (219475, Calbiochem). […] MDH reactions were initiated by the addition of 200 μM nicotinamide adenine dinucleotide (NADH) (54839, Sigma Aldrich) and 200 μM oxaloacetic acid (324427, Sigma Aldrich). The change in absorbance was monitored at 340 nm for 60 sec. Initial rates were divided by the DMSO control rate to determine % enzyme activity. […]. Data was analyzed using GraphPad Prism 9.1.

[3] = biological target: T2, hCB1 (Homo sapiens, UniProt P21554); assay: Lance Ultra cAMP accumulation assay, CHO cells; type: cell-based; set-up: expressed in transfected cells; conditions: for cAMP assay signal, concentration-response point: replicates, sheet FigureS2a; for normalised cAMP response, concentration-response (Figure2f), replicate values: log[Compound;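 for all read-outs here: human CB1R stably expressed in CHO cells, ligands co-incubated with forskolin at room temperature, read-out is lowering of forskolin-stimulated cAMP accumulation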
Method: The inhibition of forskolin-stimulated cAMP accumulation assays was carried out using PerkinElmer’s Lance Ultra cAMP kit following the manufacturer’s protocol. In brief, CHO cells stably expressing human CB1R (provided by the lab of Laura Bohn) were harvested by incubation with Versene (ThermoFisher Scientific, Waltham, MA) for 10 min, washed once with Hank’s Balanced Salt Solution, and resuspended in stimulation buffer at ~200 cells/μL density. The ligands at eight different concentrations (0.001-10,000 nM) in stimulation buffer (5 μL) containing forskolin (2 μM final concentration) were added to a 384-well plate followed by the cell suspension (5 μL; ~1000 cells/well). The plate was incubated for 30 min at room temperature. Eu-cAMP tracer (5 μL) and Ulight-anti-cAMP (5 μL) working solutions were then added to each well, and the plate was incubated at room temperature for an additional 60 min. Results were measured on a Perkin-Elmer EnVision plate reader. The EC50 values were determined by nonlinear regression analysis using Graphpad Prism 9 and are expressed as the mean of three experiments, each performed in triplicate.

[4] = biological target: T1, CB1 (rCB1); assay: Single-point radioligand displacement screen; type: binding
[5] = biological target: T2, hCB1; assay: bioSensAll ebBRET signaling profiling, hCB1; type: cell-based; set-up: host or cells: HEK293SL cells, transient PEI transfection; conditions: for Gi1 hCB1 response: Gi1 biosensor; for Gi1 hCB1 / GoB hCB1: single replicate values, FigS6a; for EC50: read-out: EC50 [95% CI]; for Emax: normalized to CP-55,940
[6] = Dynamic light scattering, colloidal aggregation; type: physicochemical; conditions: Log[compound, replicates, sheet FigS2b
Method: Samples were prepared as 8-point half-log dilutions in filtered 50 mM KPi buffer, pH 7.0 with final DMSO concentration at 1% (v/v). Colloidal particle formation was measured using DynaPro Plate Reader II (Wyatt Technologies). All compounds were screened in triplicate.

T2 sequence (P21554 whole entry): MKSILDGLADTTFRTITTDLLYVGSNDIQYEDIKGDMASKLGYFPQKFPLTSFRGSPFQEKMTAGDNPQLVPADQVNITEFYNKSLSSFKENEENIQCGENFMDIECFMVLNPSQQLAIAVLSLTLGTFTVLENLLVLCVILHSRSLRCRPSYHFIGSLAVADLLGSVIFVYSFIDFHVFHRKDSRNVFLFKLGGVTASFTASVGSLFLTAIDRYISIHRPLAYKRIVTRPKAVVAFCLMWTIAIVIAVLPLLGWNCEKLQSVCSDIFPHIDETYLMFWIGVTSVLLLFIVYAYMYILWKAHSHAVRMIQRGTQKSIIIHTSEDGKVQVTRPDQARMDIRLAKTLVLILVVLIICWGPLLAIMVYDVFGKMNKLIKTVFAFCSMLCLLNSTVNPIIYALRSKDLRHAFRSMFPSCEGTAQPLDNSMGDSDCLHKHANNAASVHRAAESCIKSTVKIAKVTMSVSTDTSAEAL
AmpC β-lactamase, sequence (P00811 20-377): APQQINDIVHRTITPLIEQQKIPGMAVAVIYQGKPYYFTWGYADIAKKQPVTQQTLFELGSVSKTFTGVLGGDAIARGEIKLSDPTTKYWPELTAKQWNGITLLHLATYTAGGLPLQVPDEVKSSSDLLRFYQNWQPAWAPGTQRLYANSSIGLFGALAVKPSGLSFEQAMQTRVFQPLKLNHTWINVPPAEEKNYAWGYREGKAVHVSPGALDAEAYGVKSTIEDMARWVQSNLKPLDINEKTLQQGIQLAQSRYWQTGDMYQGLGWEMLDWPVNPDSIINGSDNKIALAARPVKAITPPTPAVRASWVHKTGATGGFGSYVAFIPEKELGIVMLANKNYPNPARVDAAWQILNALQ
T1 sequence (P20272 whole entry): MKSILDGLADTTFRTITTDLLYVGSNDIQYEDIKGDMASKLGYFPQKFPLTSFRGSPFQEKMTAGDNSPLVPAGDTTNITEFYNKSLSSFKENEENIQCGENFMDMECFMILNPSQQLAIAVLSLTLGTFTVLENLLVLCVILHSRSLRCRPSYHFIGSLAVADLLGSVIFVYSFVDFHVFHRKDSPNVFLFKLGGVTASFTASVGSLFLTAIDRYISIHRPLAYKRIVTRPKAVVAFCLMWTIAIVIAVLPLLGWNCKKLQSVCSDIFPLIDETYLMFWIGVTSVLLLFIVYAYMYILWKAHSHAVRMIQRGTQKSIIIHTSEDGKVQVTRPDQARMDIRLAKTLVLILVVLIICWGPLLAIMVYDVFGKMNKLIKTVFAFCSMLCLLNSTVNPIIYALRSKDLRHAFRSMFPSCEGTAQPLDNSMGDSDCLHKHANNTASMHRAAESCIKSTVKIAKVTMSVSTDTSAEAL

## COC(=O)C(NC(=O)c1cc(C)n(-c2cccc(F)c2)n1)c1cccs1 (centres unmarked) [‘51486]
[1]
  Ki: 794 nM
[1]; LLE = pIC50 − clogP
  LLE (lipophilic ligand efficiency): 3.1
[1]; from measured Ki
  binding free energy ΔG: 8.4 kcal/mol
[1]; from rCB1 affinity
  LE (ligand efficiency): 0.32
[1]; log[drug] -3.643
  radioligand binding remaining, competition curve (Figure2e), replicate values: 5.353 and 8.4728 and 6.119
[1]; log[drug] -4.35655
  radioligand binding remaining, competition curve (Figure2e), replicate values: 7.365 and 2.197 and 0.3487
[1]; log[drug] -5.07
  radioligand binding remaining, competition curve (Figure2e), replicate values: 21.0991 and 15.6904 and 16.8933
[1]; log[drug] -5.783
  radioligand binding remaining, competition curve (Figure2e), replicate values: 52.9233 and 50.4184 and 37.5523
[1]; log[drug] -6.496
  radioligand binding remaining, competition curve (Figure2e), replicate values: 81.1314 and 84.728 and 72.9079
[1]; log[drug] -7.21
  radioligand binding remaining, competition curve (Figure2e), replicate values: 91.0402 and 102.441 and 95.6067
[1]; log[drug] -7.923
  radioligand binding remaining, competition curve (Figure2e), replicate values: 92.6538 and 100.244 and 104.603
[1]; log[drug] -8.636
  radioligand binding remaining, competition curve (Figure2e), replicate values: 97.1716 and 91.2657
[1]; rCB1
  pKi [95% CI]: 6.14 [6.01 –6.26]
[2]
  AMPC activity (DMSO = 100), replicate means: 133.645 and 104.886 and 117.294
[3]; compound 0.01 nM
  cAMP assay signal, concentration-response point: 0.003086 and 0.002857 and 0.002584
[3]; compound 0.1 nM
  cAMP assay signal, concentration-response point: 0.003236 and 0.002959 and 0.003953*
[3]; compound 1 nM
  cAMP assay signal, concentration-response point: 0.003012 and 0.002545 and 0.00241
[3]; compound 10 nM
  cAMP assay signal, concentration-response point: 0.003401 and 0.002801 and 0.00274
[3]; compound 100 nM
  cAMP assay signal, concentration-response point: 0.002632 and 0.003106 and 0.002457
[3]; compound 1000 nM
  cAMP assay signal, concentration-response point: 0.002532 and 0.002088 and 0.00216
[3]; compound 10000 nM
  cAMP assay signal, concentration-response point: 0.001565 and 0.001538 and 0.001686
[3]; compound 100000 nM
  cAMP assay signal, concentration-response point: 0.001247 and 0.001041 and 0.0009747
[3]; hCB1-expressing cells, in words
  agonism, inhibition of forskolin-stimulated cAMP: modest agonism
[3]; M] -5
  normalised cAMP response, concentration-response (Figure2f), replicate values: 61.1478 and 37.2808 and 60.3783 and 74.6524
[3]; M] -6
  normalised cAMP response, concentration-response (Figure2f), replicate values: 88.8547 and 72.8445 and 99.0012 and 98.4034
[3]; M] -7
  normalised cAMP response, concentration-response (Figure2f), replicate values: 93.8057 and 91.7167 and 95.78 and 96.566
[3]; M] -8
  normalised cAMP response, concentration-response (Figure2f), replicate values: 85.2922 and 84.747 and 110.313 and 100.436
[3]; M] -9
  normalised cAMP response, concentration-response (Figure2f), replicate values: 104.899 and 94.89 and 101.982 and 109.312
[3]; M] -10
  normalised cAMP response, concentration-response (Figure2f), replicate values: 98.9432 and 97.9859 and 99.2252 and 102.121
[3]; M] -11
  normalised cAMP response, concentration-response (Figure2f), replicate values: 94.0694 and 79.1039 and 104.119 and 97.9362
[3]; M] -12
  normalised cAMP response, concentration-response (Figure2f), replicate values: 99.9579 and 92.8829 and 101.899 and 97.9047
[4]; 10 µM, 1 µM or 300 nM by cell colour (not visible)
  % 1H-CP-55,940 displacement (mean) from single point screen: 90.60%
[4]; Figure 1c source data, replicate 1
  rep1_displacement: 90.6
[5]; Log [Compound] (M) -4.22186
  Gi1 hCB1 response: 123.512
  Gi1 hCB1: 75.4915
  GoB hCB1: 69.3873
[5]; Log [Compound] (M) -4.63927
  Gi1 hCB1 response: 98.3102
  Gi1 hCB1: 68.0453
  GoB hCB1: 69.0456
[5]; Log [Compound] (M) -5.05788
  Gi1 hCB1 response: 74.9216
  Gi1 hCB1: 65.332
  GoB hCB1: 68.5421
[5]; Log [Compound] (M) -5.47381
  Gi1 hCB1 response: 77.764
  Gi1 hCB1: 58.8724
  GoB hCB1: 63.2909
[5]; Log [Compound] (M) -5.89285
  Gi1 hCB1 response: 72.6387
  Gi1 hCB1: 46.1383
  GoB hCB1: 45.7032
[5]; Log [Compound] (M) -6.31878
  Gi1 hCB1 response: 38.0146
  Gi1 hCB1: 23.9076
  GoB hCB1: 23.3139
[5]; Log [Compound] (M) -6.72585
  Gi1 hCB1 response: 33.2921
  Gi1 hCB1: 13.671
  GoB hCB1: 15.8509
[5]; Log [Compound] (M) -7.14267
  Gi1 hCB1 response: -1.511
  Gi1 hCB1: 3.866
  GoB hCB1: 8.064
[5]; Log [Compound] (M) -7.55284
  Gi1 hCB1 response: -15.3428
  Gi1 hCB1: 0.7982
  GoB hCB1: 4.971
[5]; Log [Compound] (M) -8
  Gi1 hCB1 response: 9.7692
  Gi1 hCB1: -0.466
  GoB hCB1: 0.09744
[5]; Log [Compound] (M) -8.22186
  Gi1 hCB1 response: 0.839
  Gi1 hCB1: 0.05819
  GoB hCB1: -3.517
[5]; Log [Compound] (M) -8.39794
  Gi1 hCB1 response: -12.3884
  Gi1 hCB1: 0.459
  GoB hCB1: -0.9816
[5]; Log [Compound] (M) -8.68787
  Gi1 hCB1 response: 2.204
  Gi1 hCB1: -0.3118
  GoB hCB1: -2.33
[5]; Log [Compound] (M) -9.15521
  Gi1 hCB1 response: -11.247
  Gi1 hCB1: 0.7365
  GoB hCB1: -2.906
[5]; Log [Compound] (M) -9.61989
  Gi1 hCB1 response: -13.1718
  Gi1 hCB1: 0.5515
  GoB hCB1: -0.9276
[5]; Log [Compound] (M) -10.0969
  Gi1 hCB1 response: -6.323
  Gi1 hCB1: 1.1836
  GoB hCB1: -3.176
[5]; Log [Compound] (M) -10.5529
  Gi1 hCB1 response: -17.8943
  Gi1 hCB1: 0.2124
  GoB hCB1: -1.989
[5]; Log [Compound] (M) -11.0177
  Gi1 hCB1 response: -4.935
  Gi1 hCB1: 0.3974
  GoB hCB1: -1.521
[5]; Log [Compound] (M) -11.4949
  Gi1 hCB1 response: -5.54
  Gi1 hCB1: 0.1507
  GoB hCB1: -1.827
[5]; Log [Compound] (M) -11.9208
  Gi1 hCB1 response: -6.838
  Gi1 hCB1: -0.03431
  GoB hCB1: 0.2953
[5]; Log [Compound] (M) -12.3979
  Gi1 hCB1 response: -1.466
  Gi1 hCB1: -0.06514
  GoB hCB1: -1.179
[5]; Log [Compound] (M) -12.8861
  Gi1 hCB1 response: -7.42
  Gi1 hCB1: -0.466
  GoB hCB1: -2.798
[5]; Log [Compound] (M) -13, individual replicate values
  Gi1 hCB1 response: -9.747 and -10.7098
[5]; Log [Compound] (M) -13
  Gi1 hCB1: -0.8976 and -0.03431
  GoB hCB1: -1.143 and -0.8017
[5]; hCB1 Gi1
  pEC50 [95% CI]: 6.1 [6.0 – 6.1]
  EC50: 849 nM
[5]; hCB1 GoB
  pEC50 [95% CI]: 6.2 [6.1 – 6.2]
  EC50: 711 nM
[5]; hCB1 Gz
  pEC50 [95% CI]: 6.0 [5.5 – 6.4]
  EC50: 1120 nM
[5]; read-out: Emax [95% CI], hCB1 Gi1
  Emax: 73%
[5]; read-out: Emax [95% CI], hCB1 GoB
  Emax: 74%
[5]; read-out: Emax [95% CI], hCB1 Gz
  Emax: 130%
[6]; uM] 0
  DLS scattering intensity: 759657 and 686584 and 965322
[6]; uM] 0.5
  DLS scattering intensity: 1020197 and 797976 and 985220
[6]; uM] 1
  DLS scattering intensity: 599581 and 807564 and 813072
[6]; uM] 1.49996
  DLS scattering intensity: 1081636 and 666504 and 646696
[6]; uM] 2
  DLS scattering intensity: 2657372 and 4460546 and 3577303
[6]; uM] -0.500011
  DLS scattering intensity: 732851 and 712729 and 950123
[6]; uM] -1
  DLS scattering intensity: 747604 and 1271629 and 624256
[6]; uM] -1.5
  DLS scattering intensity: 774618 and 1013605 and 787428
